Measurements from ChEMBL document CHEMBL1795229, “Vasorelaxant effects of macrocyclic bis(bibenzyls) from liverworts” (Bioorg Med Chem, 2011).
The source made the active and inactive calls. The calls are words filed in the database; no cut-off is given here.

Tests used:
Aorta [1] = assay: Vasorelaxant activity in Wistar rat endothelium-intact aortic rings assessed as inhibition of phenylephrine-induced contractions at 30 uM after 10 to 30 mins; type: functional, tissue-based
Aorta [2] = assay: Vasorelaxant activity in Wistar rat endothelium-intact aortic rings assessed as inhibition of phenylephrine-induced contractions after 10 to 30 mins; type: functional, tissue-based
Aorta [3] = assay: Vasorelaxant activity in Wistar rat endothelium-intact aortic rings assessed as inhibition of phenylephrine-induced contractions at 10 to 100 uM; type: functional, tissue-based; conditions: TDE = time-dependent effect
Aorta [4] = assay: Vasorelaxant activity in Wistar rat endothelium-intact aortic rings assessed as inhibition of phenylephrine-induced contractions after 10 to 60 mins; type: functional, tissue-based
Aorta [5] = assay: Vasorelaxant activity in Wistar rat endothelium-intact aortic rings assessed as inhibition of phenylephrine-induced contractions at 10 to 100 uM after 10 to 60 mins; type: functional
Aorta [6] = assay: Vasorelaxant activity in Wistar rat endothelium-denuded aortic rings assessed as inhibition of calcium chloride-induced contractions in calcium-free potassium-rich medium at 30 uM; type: functional, tissue-based
Aorta [7] = assay: Vasorelaxant activity in Wistar rat endothelium-denuded aortic rings assessed as inhibition of phenylephrine-induced contractions at 10 to 100 uM; type: functional, tissue-based; conditions: TDE = time-dependent effect
Aorta [8] = assay: Vasorelaxant activity in Wistar rat endothelium-denuded aortic rings assessed as inhibition of phenylephrine-induced contractions presence of 1 mM of potassium channel inhibitor TEA; type: functional, tissue-based
Aorta [9] = assay: Vasorelaxant activity in Wistar rat endothelium-denuded aortic rings assessed as inhibition of phenylephrine-induced contractions in calcium-free medium at 30 uM pretreated with nicardipine; type: functional, tissue-based
Aorta [10] = assay: Vasorelaxant activity in Wistar rat endothelium-denuded aortic rings assessed as inhibition of phenylephrine-induced contractions at 10 to 100 uM after 10 to 60 mins; type: functional
Aorta [11] = assay: Vasorelaxant activity in Wistar rat aortic rings assessed as inhibition of phenylephrine-induced contractions at 10 to 100 uM after 10 to 60 mins in presence of 100 uM of NO synthase inhibitor L-NMMA; type: functional, tissue-based

SMILES | inhibition (Aorta [1]) | inhibition (Aorta [3]) | inhibition (Aorta [4]) | inhibition (INH) (Aorta [5]) [%] | also measured
COC1Cc2cccc(c2)Oc2c(O)cccc2CCc2ccc(cc2)Oc2cc1cc(O)c2O (configuration not stated) | Active |  |  |  | 
COc1cc(CCc2cccc(Oc3c(O)cccc3CCc3ccc(O)cc3)c2)cc(O)c1O | Active |  |  |  | 
COc1cc2cc(c1OC)Oc1ccc(cc1)CCc1ccc(OC)c(OC)c1Oc1cccc(c1)CC2 | Active |  |  |  | 
COc1ccc2c(c1)CCc1ccc(OC)c(c1)-c1cc(ccc1OC)CCc1ccc-2c(OC)c1 | Active |  |  |  | 
COc1cccc(CCc2ccc(O)c(Oc3ccc(CCc4cccc(O)c4)cc3)c2)c1 | Active |  |  |  | 
COc1cccc2c1Oc1cccc(c1)CCc1cc(OC)c(OC)c(c1)Oc1ccc(cc1)CC2 | Active |  |  |  | 
Oc1cc2cc(c1O)Oc1ccc(cc1)CCc1ccc(O)c(O)c1Oc1cccc(c1)CC2 | Active |  |  |  | 
Oc1cc2cc(c1O)Oc1ccc(cc1)CCc1cccc(O)c1Oc1cccc(c1)CC2 | Active |  |  |  | 
Oc1ccc(CCc2cccc(O)c2O)cc1Oc1ccc(CCc2cccc(O)c2O)cc1 | Active |  |  |  | 
Oc1ccc2c(c1)/C=C/c1ccc(O)c(c1)Oc1ccc(cc1)CCc1cccc(c1)O2 | Active |  |  |  | 
Oc1ccc2c(c1)CCc1ccc(O)c(c1)-c1cc(ccc1O)/C=C\c1cccc(c1)O2 | Active |  |  |  | 
Oc1ccc2c(c1)CCc1ccc(cc1)Oc1cc(cc(-c3cc4cc(c3O)Oc3ccc(cc3)CCc3cc(O)ccc3-c3ccc(cc3O)CC4)c1O)CCc1ccc-2c(O)c1 | Active |  |  |  | 
Oc1ccc2cc1Oc1ccc(cc1)CCc1cccc(c1)Oc1c(O)cccc1CC2 | Active |  |  |  | 
CC(=O)OCC[N+](C)(C)C [ACETYLCHOLINE] |  |  |  |  | IC50 (Aorta [2]): 1000 nM
Oc1ccc2cc1-c1cc(ccc1O)CCc1c(ccc(O)c1O)Oc1cccc(c1)/C=C\2 [ISOPLAGIOCHIN B] | Active | tde | Dose-dependent effect | >60 | inhibition (Aorta [6]): inactive; inhibition (Aorta [7]): tde; inhibition (Aorta [8]): inactive; inhibition (Aorta [9]): Active; inhibition (INH) (Aorta [10]): >80%
Oc1ccc2c(c1)CCc1ccc(O)c(c1)-c1cc(ccc1O)CCc1ccc-2c(O)c1 [ISOPLAGIOCHIN D] | Active | tde | Dose-dependent effect | >60 | inhibition (Aorta [6]): Active; inhibition (Aorta [7]): tde; inhibition (Aorta [8]): Active; inhibition (Aorta [9]): Active; inhibition (INH) (Aorta [10]): >80%
Oc1cccc(CCc2ccc(Oc3cc(CCc4cccc(O)c4)cc(O)c3O)cc2)c1 [PERROTETTIN F] | Active | tde | Dose-dependent effect | >60 | inhibition (Aorta [6]): Active; inhibition (Aorta [7]): tde; inhibition (Aorta [8]): Active; inhibition (Aorta [9]): Active; inhibition (INH) (Aorta [10]): >80%
COc1cc2c(cc1O)-c1ccc(O)cc1CCc1cc(O)c(O)c(c1)Oc1ccc(cc1)CC2 [PLAGIOCHIN A] | Active | tde | Dose-dependent effect | >60 | inhibition (Aorta [11]): inactive; inhibition (Aorta [10]): inactive
Oc1ccc2c(c1)CCc1ccc(cc1)Oc1cc(ccc1O)CCc1ccc-2c(O)c1 [RICCARDI C] | Active | tde | Dose-dependent effect | >60 | inhibition (Aorta [10]): inactive
COc1ccc2cc1Oc1ccc(cc1)CCc1cc(O)ccc1-c1ccc(cc1O)CC2 [RICCARDI F] | Active | tde | Dose-dependent effect | >60 | inhibition (Aorta [10]): inactive
COc1ccc2c(c1)CCc1ccc(cc1)Oc1cc(ccc1O)CCc1ccc-2c(O)c1 [RICCARDIN A] | Active | tde | Dose-dependent effect | >60 | inhibition (Aorta [10]): inactive
